{"source": "patent US11197856B2", "about": "“Bicyclic compounds and methods for their use in treating autism” (priority 2013, dated 2021)", "key": {"[1]": {"system": "hippocampal slices of Shank3-deficient mice", "experiment": "Shank3-deficient mice: hippocampal slice electrophysiology", "type": "in vivo", "procedure": "1 to 3 month old wild-type and heterozygous Shank3-deficient mice are divided into 4 treatment groups: placebo treated wild-type, placebo treated Shank3-deficient group and two Shank3-deficient cG-2-AllylP treated groups. The animals are given placebo (water) or cG-2-AllylP formulated in water administered orally, b.i.d for 14 days. cG-2-AllylP is administered at two doses: 15 or 60 mg/kg.\nPost-mortem, acute hippocampal slices (350 μm) are prepared from mice using a tissue chopper. Slices are maintained and experiments are conducted at 32° C. Slices are perfused with Ringer's solution containing (in mM): NaCl, 125.0; KCl, 2.5; MgSO4, 1.3; NaH2PO4, 1.0; NaHCO3, 26.2; CaCl2, 2.5; glucose, 11.0. The Ringer's solution is bubbled with 95% 02/5% CO2, at 32° C., during extracellular recordings (electrode solution: 3 M NaCl). Slices are maintained for 1 hr prior to establishment of a baseline of field excitatory postsynaptic potentials (fEPSPs) recorded from stratum radiatum in area CA1, evoked by stimulation of the Schaffer collateral-commissural afferents (100 μs pulses every 30 s) with bipolar tungsten electrodes placed into area CA3. Test stimulus intensity is adjusted to obtain fEPSPs with amplitudes that are one-half of the maximal response. The EPSP initial slope (mV/ms) is determined from the average waveform of four consecutive responses. Input-output (I/O) curves are generated by plotting the fEPSP slope versus fiber volley amplitude in low-Mg^2+ (0.1 mM) solution. AMPA receptor-mediated and NMDA receptor-mediated I/O relationships are measured in the presence of ionotropic glutamate receptor antagonists: […] APV (50 μM) and 6-cyano-7-nitroquinoxaline-2,3-dione CNQX (100 μM). Paired-pulse responses are measured with interstimulus intervals of 10 to 200 ms, and are expressed as the ratio of the average responses to the second stimulation pulse to the first stimulation pulse. […]"}, "[2]": {"system": "pre-synaptic vesicles in the hippocampus", "experiment": "Pre-synaptic vesicle count by transmission electron microscopy, middle aged rats", "type": "in vivo, Wistar male rats", "settings": "CA1 and C3 subregions; 3 mg/kg/day x 7 days, s.c.; 21 days", "procedure": "Four middle aged Wistar male rats (12 months) were divided into two groups: one vehicle-treated (n=2) and one cG-2-AllylP-treated (n=2). The rats were treated subcutaneously with 3 mg/kg/day of either saline or cG-2-AllylP for 7 days. On day 21 of the experiment the animals were sacrificed and the hippocampal tissue was harvested. Semi-thin sections of the tissue were fixed with OsO4 and embedded in resin. CA1 stratum oriens and CA3 sections were then sliced into ultra-thin, 80 nm slices and stained with uranyl acetate and lead citrate. Approximately 30 synapses per animal were analysed, synapse type classified and vesicle density was measured using AnalySIS®.\nTransmission electron microscopy was used to count the total number of vesicles on the slides. The average density was calculated by measuring the total area (using AxioVision software) and using the number of vesicles. We followed the protocol in Yoshida et al. 97, Journal of Neurochemistry to calculate the vesicle density in a 200 nm×200 nm square apposing the post-synaptic density (PSD)."}, "[3]": {"system": "animals with scopolamine-induced memory impairment", "experiment": "Morris Water Maze (MWM) test with scopolamine-induced memory impairment", "type": "in vivo, Wistar rats", "settings": "30 mg/kg; daily; oral", "excerpt": "The first part of the study involved acute testing of cG-2-AllylP in the Morris Water Maze Memory (MWM) model. The MWM test is one of the most frequently used tests for assessing spatial memory in rats and is well recognized to accurately predict effects of disease and treatment on spatial memory generally. Therefore, the MWM test reflects effects of disease and treatment in human subjects. The standard procedure for MWM was followed. We used a circular swimming pool (80 cm depth×150 cm diameter) filled with opaque water, with the temperature maintained at 20° C. […] On days 1-4 of the experiment rats underwent memory acquisition trials with 6 trials (60 seconds each) in each day of testing (habituation phase). Latency to reach the platform was recorded and the daily reduction of average latency was used to measure the capability to learn where the hidden platform was. […] Experimental groups are detailed in the Table 4 below. On […], the probe MWM test was performed with the platform removed. There were 6 trials, each of maximum duration of 60s, at least 3 min rest between trials). […] Data was collected and analysed using Any-maze (v4.2) software. The data generated from behavioural tests was analysed using one-way ANOVA for determining the difference between the aged-groups. […]"}}, "data": [{"smiles": "C=CC[C@]12CCCN1C(=O)CNC2=O", "note": "[cG-2-AllylP, (8aS)-Allyl-hexahydropyrrolo[1,2-a]pyrazine-1,4-dione]", "values": [{"measurement": "hippocampal long-term potentiation (LTP) and its maintenance", "setting": "[1]; both Shank3-deficient groups, vs placebo", "result": "increases hippocampal long-term potentiation (LTP) and its maintenance"}, {"measurement": "AMPA receptor-mediated field potentials", "setting": "[1]; both heterozygous groups, 15 or 60 mg/kg", "result": "normalizes the AMPA receptor-mediated field potentials"}, {"measurement": "average slope of I/O function", "setting": "[1]; both heterozygous groups, vs placebo treated Shank3-deficient group", "result": "increase in the average slope of I/O function"}, {"measurement": "number of pre-synaptic vesicles", "setting": "[2]", "result": "increased"}, {"measurement": "cognitive impairment induced by scopolamine (MWM)", "setting": "[3]", "result": "significantly reversed the cognitive impairment induced by scopolamine"}]}]}
